# Assay results reported in PubChem BioAssay (NCI).
#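 How tested: cells in 96-well plates exposed to compound for 48 hours at five concentrations. Abbreviation: GI50, concentration required for 50% inhibition of growth. At the TGI there is no net growth.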
# Legend:
# Assay in all cases: DTP human tumour cell line panel, 48 h
# SR leukemia = system: SR leukemia
# COLO 205 colon = system: COLO 205 colon
# NCI-H460 lung = system: NCI-H460 lung
# MDA-MB-435 = system: MDA-MB-435
# DU-145 prostate = system: DU-145 prostate
# IGROV1 ovarian = system: IGROV1 ovarian
# PC-3 prostate = system: PC-3 prostate
# HOP-92 NSCLC = system: HOP-92 NSCLC
# M14 melanoma = system: M14 melanoma
# BT-549 breast = system: BT-549 breast
# UO-31 renal = system: UO-31 renal
# SK-MEL-28 melanoma = system: SK-MEL-28 melanoma
# MOLT-4 leukemia = system: MOLT-4 leukemia
# OVCAR-4 ovarian = system: OVCAR-4 ovarian
# RXF 393 renal = system: RXF 393 renal
# SK-OV-3 ovarian = system: SK-OV-3 ovarian
# EKVX NSCLC = system: EKVX NSCLC
# SNB-75 CNS = system: SNB-75 CNS
# SW-620 colon = system: SW-620 colon
# HT29 colon = system: HT29 colon
# UACC-257 melanoma = system: UACC-257 melanoma
# SF-268 CNS = system: SF-268 CNS
# U251 CNS = system: U251 CNS
# SN12C renal = system: SN12C renal
# UACC-62 melanoma = system: UACC-62 melanoma
# LOX IMVI melanoma = system: LOX IMVI melanoma
# MCF7 breast = system: MCF7 breast
# HS 578T breast = system: HS 578T breast
# MALME-3M melanoma = system: MALME-3M melanoma
# HCC-2998 colon = system: HCC-2998 colon
# 786-0 renal = system: 786-0 renal
# HCT-15 colon = system: HCT-15 colon
# NCI/ADR-RES ovarian = system: NCI/ADR-RES ovarian
# ACHN renal = system: ACHN renal
# MDA-MB-231 breast = system: MDA-MB-231 breast
# OVCAR-3 ovarian = system: OVCAR-3 ovarian
# OVCAR-8 ovarian = system: OVCAR-8 ovarian
# SNB-19 CNS = system: SNB-19 CNS
# OVCAR-5 ovarian = system: OVCAR-5 ovarian
# SK-MEL-5 melanoma = system: SK-MEL-5 melanoma
# HCT-116 colon = system: HCT-116 colon
# HL-60(TB) leukemia = system: HL-60(TB) leukemia
# RPMI-8226 leukemia = system: RPMI-8226 leukemia
# SF-295 CNS = system: SF-295 CNS
# CAKI-1 renal = system: CAKI-1 renal
# A498 renal = system: A498 renal
# KM12 colon = system: KM12 colon
# NCI-H226 lung = system: NCI-H226 lung
# CCRF-CEM leukemia = system: CCRF-CEM leukemia
# HOP-62 NSCLC = system: HOP-62 NSCLC
# SK-MEL-2 melanoma = system: SK-MEL-2 melanoma
# T-47D breast = system: T-47D breast
# SF-539 CNS = system: SF-539 CNS
# NCI-H23 lung = system: NCI-H23 lung
# TK-10 renal = system: TK-10 renal
# A549 NSCLC = system: A549 NSCLC
structure (smiles),measurement,setting,value
C#C[C@]1(O)CC[C@H]2[C@@H]3CC=C4c5sc(Nc6ncccc6C)nc5CC[C@]4(C)[C@H]3CC[C@@]21C,GI50,SR leukemia,0.493 µM
same,TGI,SR leukemia,2.46 µM
same,GI50,COLO 205 colon,1.8 µM
same,TGI,COLO 205 colon,3.9 µM
same,GI50,NCI-H460 lung,1.27 µM
same,TGI,NCI-H460 lung,2.86 µM
same,GI50,MDA-MB-435,2.08 µM
same,TGI,MDA-MB-435,6.39 µM
same,GI50,DU-145 prostate,2.24 µM
same,TGI,DU-145 prostate,7.46 µM
same,GI50,IGROV1 ovarian,2.45 µM
same,TGI,IGROV1 ovarian,8.96 µM
same,GI50,PC-3 prostate,0.603 µM
same,TGI,PC-3 prostate,8.67 µM
same,GI50,HOP-92 NSCLC,2.31 µM
same,TGI,HOP-92 NSCLC,5.99 µM
same,GI50,M14 melanoma,1.29 µM
same,TGI,M14 melanoma,3.43 µM
same,GI50,BT-549 breast,1.17 µM
same,TGI,BT-549 breast,4.12 µM
same,GI50,UO-31 renal,1.23 µM
same,TGI,UO-31 renal,2.82 µM
same,GI50,SK-MEL-28 melanoma,0.425 µM
same,TGI,SK-MEL-28 melanoma,1.64 µM
same,GI50,MOLT-4 leukemia,0.561 µM
same,TGI,MOLT-4 leukemia,2.7 µM
same,GI50,OVCAR-4 ovarian,1.9 µM
same,TGI,OVCAR-4 ovarian,11.3 µM
same,GI50,RXF 393 renal,0.15 µM
same,TGI,RXF 393 renal,0.456 µM
same,GI50,SK-OV-3 ovarian,1.85 µM
same,TGI,SK-OV-3 ovarian,4.66 µM
same,GI50,EKVX NSCLC,1.34 µM
same,TGI,EKVX NSCLC,9.53 µM
same,GI50,SNB-75 CNS,0.568 µM
same,TGI,SNB-75 CNS,5.44 µM
same,GI50,SW-620 colon,1.53 µM
same,TGI,SW-620 colon,3.1 µM
same,GI50,HT29 colon,1.6 µM
same,TGI,HT29 colon,3.99 µM
same,GI50,UACC-257 melanoma,1.64 µM
same,TGI,UACC-257 melanoma,4.29 µM
same,GI50,SF-268 CNS,1.86 µM
same,TGI,SF-268 CNS,7.3 µM
same,GI50,U251 CNS,0.753 µM
same,TGI,U251 CNS,3.34 µM
same,GI50,SN12C renal,1.83 µM
same,TGI,SN12C renal,4.16 µM
same,GI50,UACC-62 melanoma,1.55 µM
same,TGI,UACC-62 melanoma,3.43 µM
same,GI50,LOX IMVI melanoma,1.32 µM
same,TGI,LOX IMVI melanoma,2.72 µM
same,GI50,MCF7 breast,1.05 µM
same,TGI,MCF7 breast,3.15 µM
same,GI50,HS 578T breast,0.424 µM
same,TGI,HS 578T breast,2.3 µM
same,GI50,MALME-3M melanoma,1.78 µM
same,TGI,MALME-3M melanoma,4.85 µM
same,GI50,HCC-2998 colon,2.53 µM
same,TGI,HCC-2998 colon,6.71 µM
same,GI50,786-0 renal,0.355 µM
same,TGI,786-0 renal,1.43 µM
same,GI50,HCT-15 colon,1.36 µM
same,TGI,HCT-15 colon,3 µM
same,GI50,NCI/ADR-RES ovarian,1.81 µM
same,TGI,NCI/ADR-RES ovarian,6.15 µM
same,GI50,ACHN renal,1.85 µM
same,TGI,ACHN renal,10.7 µM
same,GI50,MDA-MB-231 breast,1.65 µM
same,TGI,MDA-MB-231 breast,4.39 µM
same,GI50,OVCAR-3 ovarian,2.04 µM
same,TGI,OVCAR-3 ovarian,5.29 µM
same,GI50,OVCAR-8 ovarian,1.99 µM
same,TGI,OVCAR-8 ovarian,13.6 µM
same,GI50,SNB-19 CNS,1.88 µM
same,TGI,SNB-19 CNS,6.58 µM
same,GI50,OVCAR-5 ovarian,1.83 µM
same,TGI,OVCAR-5 ovarian,4.39 µM
same,GI50,SK-MEL-5 melanoma,1.57 µM
same,TGI,SK-MEL-5 melanoma,2.96 µM
same,GI50,HCT-116 colon,1.04 µM
same,TGI,HCT-116 colon,2.51 µM
same,GI50,HL-60(TB) leukemia,1.4 µM
same,TGI,HL-60(TB) leukemia,3.76 µM
same,GI50,RPMI-8226 leukemia,0.264 µM
same,TGI,RPMI-8226 leukemia,0.681 µM
same,GI50,SF-295 CNS,0.246 µM
same,TGI,SF-295 CNS,0.694 µM
same,GI50,CAKI-1 renal,1.35 µM
same,TGI,CAKI-1 renal,3.28 µM
same,GI50,A498 renal,0.454 µM
same,TGI,A498 renal,1.91 µM
same,GI50,KM12 colon,1.66 µM
same,TGI,KM12 colon,4.55 µM
same,GI50,NCI-H226 lung,1.49 µM
same,TGI,NCI-H226 lung,3.4 µM
same,GI50,CCRF-CEM leukemia,1.01 µM
same,TGI,CCRF-CEM leukemia,4.46 µM
same,GI50,HOP-62 NSCLC,1.35 µM
same,TGI,HOP-62 NSCLC,3.31 µM
same,GI50,SK-MEL-2 melanoma,1.28 µM
same,TGI,SK-MEL-2 melanoma,4.35 µM
same,GI50,T-47D breast,2.11 µM
same,TGI,T-47D breast,8.52 µM
same,GI50,SF-539 CNS,0.335 µM
same,TGI,SF-539 CNS,1.31 µM
same,GI50,NCI-H23 lung,1.77 µM
same,TGI,NCI-H23 lung,6.24 µM
same,GI50,TK-10 renal,2.56 µM
same,TGI,TK-10 renal,6.82 µM
same,GI50,A549 NSCLC,2.05 µM
same,TGI,A549 NSCLC,12.8 µM
